Measurements reported in patent US9862684B2, “Modulation of K2P channels” (The Regents of the University of California, priority 2013, dated 2018).

What was measured:
[1] = target: T1, purified TRAAK channels (Homo sapiens, UniProt Q9NYG8); assay: UV crosslinking and labeling of purified TRAAK channel; format: binding; conditions: TRAAK 3 μM, 254 nm UV 30 seconds, streptavidin-HRP detection
T1 sequence (Q9NYG8 1-393): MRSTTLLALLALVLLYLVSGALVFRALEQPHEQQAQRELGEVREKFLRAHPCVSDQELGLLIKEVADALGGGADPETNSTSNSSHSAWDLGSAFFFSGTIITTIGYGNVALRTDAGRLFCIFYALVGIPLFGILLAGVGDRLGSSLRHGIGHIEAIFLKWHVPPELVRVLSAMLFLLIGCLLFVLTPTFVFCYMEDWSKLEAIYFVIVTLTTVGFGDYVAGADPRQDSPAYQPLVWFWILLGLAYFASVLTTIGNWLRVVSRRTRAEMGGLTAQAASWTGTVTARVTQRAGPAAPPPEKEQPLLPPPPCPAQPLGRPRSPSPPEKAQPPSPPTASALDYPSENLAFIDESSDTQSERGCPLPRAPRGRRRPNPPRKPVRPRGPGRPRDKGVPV
Description: FIG. 15 Crosslinking and labeling of TRAAK channel with ML67-151; crosslinking of ML67-151 to purified TRAAK channels (3 μM) following exposure to 254 nm UV light for 30 seconds; left is SDS-PAGE of purified TRAAK, top middle is streptavidin-HRP detection following addition of clickable biotin; bottom middle is Ponceau S staining
Crosslinking of ML67-151 to purified TRAAK channels (3 μM) following exposure to 254 nm UV light for 30 seconds is shown in the top middle blot of FIG. 15, including streptavidin-HRP detection following addition of clickable biotin.

[2] = target: T2, TREK-1 (Mus musculus, UniProt P97438); assay: Modulation of TREK-1 by select compounds (agonist activity), Table 3; format: cell-based, Murine; conditions: 50 μM
T2 construct: expressed in transfected cells
T2 sequence (P97438 1-411 isoform P97438-2): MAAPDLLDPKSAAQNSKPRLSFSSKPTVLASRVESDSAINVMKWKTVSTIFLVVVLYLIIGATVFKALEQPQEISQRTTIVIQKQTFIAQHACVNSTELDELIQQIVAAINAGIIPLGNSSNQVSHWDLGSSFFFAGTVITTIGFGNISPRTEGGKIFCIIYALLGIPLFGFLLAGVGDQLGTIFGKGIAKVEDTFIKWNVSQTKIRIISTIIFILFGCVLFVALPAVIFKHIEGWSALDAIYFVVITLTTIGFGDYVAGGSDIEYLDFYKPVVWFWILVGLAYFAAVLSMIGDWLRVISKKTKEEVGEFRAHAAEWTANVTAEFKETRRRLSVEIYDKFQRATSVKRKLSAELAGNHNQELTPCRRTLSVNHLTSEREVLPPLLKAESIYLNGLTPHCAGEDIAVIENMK
Description: Two-electrode voltage clamp recordings were performed from defolliculated stage V-VI Xenopus oocytes 24-48 hours after injection with 0.015-6.0 ng cRNA, using microelectrodes (0.3-3.0 MΩ) filled with 3M KCl. […] Recording solutions (mM): 2K (96 NaCl, 2 KCl, 1.8 CaCl2, 2 MgCl2), 90K (90 KCl, 8 NaCl, 1.8 CaCl2, 2 MgCl2), were buffered 5 mM HEPES pH 7.4. For K2P recordings, currents we elicited by a 1 second long ramp from −150 to +50 mV from a holding potential of −80 mV (2K), or −100 to +50 mV from a holding potential of 0 mV (90K). For KCNQ2 recordings, currents were elicited by a step protocol from −120 to 60 mV, in 20 mV increments, from a holding potential of −80 mV. […] Currents were elicited by a 1 second long ramp from −150 to +50 mV from a holding potential of −80 mV.

% activity at 50 μM [2]: About 50% activity of ML67-33 at 50 μM
SMILES: C#Cc1ccc(S(=O)(=O)NC(=O)CCN2c3ccc(N=[N+]=[N-])cc3C3(CCCCC3)c3cc(N=[N+]=[N-])ccc32)cc1 [ML67-151, 1-(2-azido-10-{2-[(4-ethynylbenzene-sulfonyl)carbamoyl]ethyl}-10H-spiro[acridine-9,1′-cyclohexane]-7-yl)triaza-1,2-dien-2-ium]
crosslinking and labeling of TRAAK channel (in words) [1]: capable of crosslinking and labeling TRAAK channel
